From patent US4742083A, “Method of relieving pain and inflammatory conditions employing substituted salicylamides” (Lever Brothers Company, priority 1985, dated 1988)

Assays:
[1] = comparison; oral, rats; cited from earlier work
[2] = tested on: untreated mice ears; experiment: Inflammatory potential on untreated mice ears (Study B, Day 1); assay type: in vivo, hairless outbred mice (Skh:hr-1 strain); settings: 1.5 micromole per 10 microliter on untreated ears
Description: (§1) Acute inflammation is induced by the application of 4 nano mole of the antibiotic A-23187 to the ears of young, male, adult hairless outbred mice (Skh:hr-1 strain). Thereafter, one of the compounds AN-10, AMCF3-8, ACBXE-9, acryloyl AN-10, S-4-F and SAN-6 is applied to the affected ears and the degree of reduction in edema (inflammation) noted.
(§2) A second group of studies (Study B) is conducted on two consecutive days with two sets of mice (totalling 80 animals) received from the same shipment.
The first batch of 40 animals is divided into 8 groups of 5 each. […] The remaining two groups of 5 animals each serve as controls and their ears are dosed with A-23187 and acetone respectively.
(§3) The amount of each salicylamide compound applied is kept constant, for Days 1 and 2, at 1.5 micromole per 10 microliter of test solution. Sacrifice begins four hours after application A-23187, on both days, and the results are recorded. Table 2 summarizes the results of the regimen of testing involved with each one of the 30 animals in question on Day 2 with the remaining 10 animals serving as controls as already noted.

[3] = tested on: inflammation of mice ears caused by antibiotic A-23187; experiment: Reduction of A-23187-induced ear edema by ear weights, Examples 8-14; assay type: in vivo, hairless outbred mice (Skh:hr-1 strain); settings: for Reduction in Edema (%), Study B: Day 2, 1.5 micromole per 10 microliter, A-23187 (4 nmole), sacrifice from 4 hours; for antiinflammatory activity (in words): under the test conditions of Table 2
Description: as §1
The method used in the subject Examples differs from the method used in the preceding Examples (4 through 7) in two respects.
Secondly, in the expression of the data, the objective parameter of ear weights is used as the sole data source (for the reduction of edema) as erythematous responses are not recorded. Ear weights are determined by sacrificing the animals four hours after initial application of the antibiotic A-23187 or other control material by the use of CO2 gas. Thereafter, the ears are excised by cutting along the characteristic ridge readily discernible along the inner aspect of the ears. Wet and dry ear weights are used to determine the extent of the edema or inflammation present.
In Study A, 28 test animals are randomized into four treatment groups of seven each and subjected to the following ear treatment regimen:
Each animal is dosed with a treatment consisting of a 10 microliter quantity of the assigned test material solution (or pure acetone in the case of the animals of Group D) applied to the outer aspect of both ears, i.e., 10 microliter of test material per ear. The concentrations of the respective materials in acetone solution are such that a 10 microliter dose of a solution of the antibiotic A-23187 contains 4 nano mole of such antibiotic. The corresponding quantity in the case of the AN-10 in acetone solution is 1.5 micromole. The animals of Groups A and B are initially treated with the acetone solution of A-23187. In the case of the animals of Group B alone, 10 microliter of the acetone solution of AN-10 is applied to the affected ears 1/2 hour after the application of the above-mentioned quantity of a solution in acetone of the antibiotic A-23187. The animals of Group C receive a 10 microliter dose per ear of the AN-10 in acetone solution alone. The animals of Group D receive a dose of 10 microliter per ear of pure acetone. All the test subjects are sacrificed four hours after the application of A-23187 to the animals of Groups A and B or the other test materials in the case of the animals of Groups C and D. The results are summarized in Table 2 noted below.
as §2
On Day 2, using the second set of 40 mice, sub-divided into 8 groups of 5 each, the six compounds in question are applied as acetone solutions in the manner described under Study A to mice ears inflamed with A-23187 again, as described in Study A above. As with the studies conducted on Day 1, the remaining two groups of 5 animals each serve as controls and their ears are dosed with A-23187 and acetone respectively.
as §3

[4] = tested on: inflammation of mice ears caused by calcium ionophore (A-23187); experiment: Reduction of A-23187-induced ear inflammation (edema and erythema), Examples 4-7, each animal its own control; assay type: in vivo, male outbred hairless mice; settings: for anti-inflammatory activity (in words): at the concentration used (1.5 micromole topical); for reduction of inflammation (reference anti-inflammatories): topical, 30 minutes after application of A-23187
Description: In a group of 5 male outbred hairless mice, inflammation is induced on their ears by the topical application thereto of 4.0 nmole in acetone solution (total volume 10 microliter) of the known divalent calcium ionophore (antibiotic A-23187), which is derived from Streptomyces chartreusis and is a member of a known class of compounds showing ionophoric activity. See, e.g. Pressman, B. C., "Biological Applications of Ionophores", Ann. Rev. Biochem., 45, 501, 1976. […] See Marks, F., Furstenberger, G., and Kownatzki, E., "Prostaglandin E-mediated Mitogenic Stimulation of Mouse Epidermis in vivo by divalent cation ionophore A-23187 and by tumor promoter 12-O-tetradecanoyl phorbol-13-acetate, Cancer Res., 41, 696, 1981.
In each animal only one ear is treated, the other untreated ear serving as a control.
In Examples 4, 5 and 6 the compounds AN-10, APCF3-8 and AMCF3-8, respectively, are topically applied to the treated ears of different groups of five male outbred hairless mice 30 minutes following the topical application thereto of the ionophore A-23187. Specifically, 1.5 micromole of the amido compound in acetone solution (total volume 10 microliters) is applied topically to treated male outbred hairless mice ears 30 min. after topical application thereto of a calcium ionophore (A-23187, 4.0 nmole total volume to 10 microliter) in acetone. As already noted, in each case, each animal serves as its own control in that only one ear is subjected to said test regime while the other ear is left untouched. Erythema and edema are assessed 4 hrs. after application of the ionophore. In Control Example 7, 3,4',5-tribromosalicylanilide (TBS) is applied in the same manner.

[5] = single dose oral route, Osborne-Mendel white rats, sixteen females; cited from earlier work
[6] = tested on: mice backs (skin); settings: topical application to mice backs, in vivo tumor promotion studies; cited from earlier work
[7] = 1.5 micromole topical, 30 min after A-23187 (4.0 nmole), assessed 4 hrs after ionophore

SMILES | noticeable inflammation (inflammatory potential) [2] | Reduction in Edema (%), Study B ([3]; ear weights) [%] | antiinflammatory activity (in words) [3] | anti-inflammatory activity (in words) [4] | also measured
CC(=O)Oc1ccccc1C(=O)O [aspirin, acetylsalicylic acid] | – | – | – | – | LD50 (comparable toxicity of aspirin) [1]: about 1.75 g/kg. body weight
CCCCCCc1ccc(O)c(C(=O)Nc2ccc([N+](=O)[O-])cc2)c1 [SAN-6] | none of the six compounds being tested cause any noticeable inflammation | 59 | significant antiinflammatory activity | – | –
CCCCCCCC(=O)c1ccc(O)c(C(=O)Nc2ccc(C(F)(F)F)cc2)c1 [APCF3-8] | – | – | – | effective anti-inflammatories | –
O=C(Nc1ccc(Br)cc1)c1cc(Br)cc(Br)c1O [TBS, 3,4',5-tribromosalicylanilide] | – | – | – | essentially inactive | Reduction in Edema (%) [4, 7]: 12%; Reduction in Erythema (%) [4, 7]: 35%
CCCCCCCCC(=O)c1ccc(O)c(C(=O)Nc2cccc(C(=O)OCC)c2)c1 [ACBXE-9] | none of the six compounds being tested cause any noticeable inflammation | 76 | significant antiinflammatory activity | – | –
C=CC(=O)Oc1ccc(C(=O)CCCCCCCCC)cc1C(=O)Nc1ccc([N+](=O)[O-])cc1 [acryloyl AN-10] | none of the six compounds being tested cause any noticeable inflammation | 82 | significant antiinflammatory activity | – | –
CCCCCCCCCC(=O)c1ccc(O)c(C(=O)Nc2ccc([N+](=O)[O-])cc2)c1 [AN-10] | none of the six compounds being tested cause any noticeable inflammation | 81 | significant antiinflammatory activity | effective anti-inflammatories | LD50 [5]: greater than 2000 mg./kg.; Reduction in Edema (%), Study A ([3]; Study A, 1.5 micromole per ear, 1/2 hour after A-23187 (4 nmole), sacrificed at 4 hours, ear weights): 55%
CCCCCCCC(=O)c1ccc(O)c(C(=O)Nc2cccc(C(F)(F)F)c2)c1 [AMCF3-8] | none of the six compounds being tested cause any noticeable inflammation | 81 | significant antiinflammatory activity | effective anti-inflammatories | –
COc1ccc2c(c1)c(CC(=O)O)c(C)n2C(=O)c1ccc(Cl)cc1 [indomethacin] | – | – | – | – | reduction of inflammation (reference anti-inflammatories) [4]: reduction of inflammation
C[C@]12CCC(=O)C=C1CC[C@@H]1[C@@H]2[C@@H](O)C[C@@]2(C)[C@H]1CC[C@]2(O)C(=O)CO [hydrocortisone] | – | – | – | – | reduction of inflammation (reference anti-inflammatories) [4]: reduction of inflammation
CCCCc1ccc(O)c(C(=O)Nc2cccc(C(F)(F)F)c2)c1 [S-4-F] | none of the six compounds being tested cause any noticeable inflammation | 70 | significant antiinflammatory activity | – | –
CNc1ccc2oc(C[C@H]3O[C@@]4(CC[C@H]3C)O[C@H]([C@H](C)C(=O)c3ccc[nH]3)[C@H](C)C[C@H]4C)nc2c1C(=O)O [A-23187] | – | – | – | – | acute inflammation on treated ears after topical A-23187 ([4]; within 4 hours following topical application, time and dose dependent): Acute inflammation develops; skin irritation [6]: potent ability to cause skin irritation
